± gives the expanded uncertainty stated by the source.
Key:
[1] = for Normal melting temperature: Crystal, DTA
[2] = Molar enthalpy of transition or fusion
[3] = Crystal 2, Differential scanning calorimeter

Row | Compound | Normal melting temperature [1] [°C] | Molar enthalpy of transition or fusion ([2]; Crystal, DSC) [kcal/mol] | Triple point temperature [1, 3] [K] | Molar enthalpy of transition or fusion [2, 3] [kcal/mol]
1 | Cc1ccc(C(C)C)c(O)c1 [3-methyl-6-isopropylphenol] | 49 ± 0.4 | 4.16 ± 0.12 | – | –
2 | COc1cc(C(=O)O)ccc1O [4-hydroxy-3-methoxybenzoic acid] | 207.6 ± 0.5 | 6.96 ± 0.191 | – | –
3 | COc1cc(C=CC(=O)O)ccc1O [4-hydroxy-3-methoxycinnamic acid] | 171.8 ± 0.9 | 7.62 ± 0.215 | – | –
4 | Cn1c(=O)c2c(ncn2C)n(C)c1=O [caffeine] | 232.2 ± 0.5 | 4.28 ± 0.143 | 405.8 | 0.621

Source: the NIST ThermoML archive (doi:10.1016/j.jct.2011.12.005)
